Results as given in patent publication US7271174B2, “Metabolites of tricyclic amides useful for inhibition of G-protein function and methods of treatment of proliferative diseases” (Schering Corporation, priority 2003, dated 2007).

Biological target: purified human farnesyl protein transferase (Homo sapiens, UniProt P49354+P49356)
Assay: (H-Ras) Farnesyl Transferase Inhibition assay
Type: biochemical
Conditions: transfer of [3H] farnesyl from [3H] farnesyl pyrophosphate to biotin-CVLS peptide; 37° C., 60 minutes; SPA beads
Description: Assay Conditions for (H-Ras) FPT
FPT activity was determined by measuring the transfer of [^3H] farnesyl from [^3H] farnesyl pyrophosphate to a biotinylated peptide derived from the C-terminus of H-Ras (biotin-CVLS). […] The reaction mixture was incubated in a Vortemp shaking incubator at 37° C., 45 RPM for 60 minutes and stopped with 150 μL of 0.25 M EDTA containing 0.5% BSA and 1.3 mg/ml Streptavidin SPA beads. […] Percent inhibition was calculated relative to the vehicle control.

Row | Structure (SMILES) | IC50 [nM]
1 | NC(=O)N1CC=C(CC(=O)N2CCC([C@H]3c4ncc(Br)cc4CCc4cc(Cl)cc(Br)c43)CC2)CC1 [Compound 8, (+)-4-[2-[4-(3,10-dibromo-8-chloro-6,11-dihydro-5H-benzo[5,6]cyclohepta[1,2-b]pyridin-11(R)-yl)-1-piperidinyl]-2-oxoethyl]-3,4-didehydro-1-piperidine-carboxamide] | 2.6
2 | NC(=O)N1CCC(=CC(=O)N2CCC([C@H]3c4ncc(Br)cc4CCc4cc(Cl)cc(Br)c43)CC2)CC1 [Compound 9, (+)-4-[2-[4-(3,10-Dibromo-8-chloro-6,11-dihydro-5H-benzo[5,6]cyclohepta[1,2-b]pyridin-11(R)-yl)-1-piperidinyl]-2-oxoethylidene]-1-piperidinecarboxamide] | 23.3
